Target: His-Tagged hOGA (human O-GlcNAcase) (Homo sapiens (Human), UniProt O60502)
Experiment: Human O-GlcNAcase enzyme inhibition assay (Example B01)
Type: biochemical
Conditions: OGA IC50 (M), OGA enzyme inhibition assay; activity range classes defined in μM

Sequence of His-Tagged hOGA (human O-GlcNAcase) (O60502 whole entry): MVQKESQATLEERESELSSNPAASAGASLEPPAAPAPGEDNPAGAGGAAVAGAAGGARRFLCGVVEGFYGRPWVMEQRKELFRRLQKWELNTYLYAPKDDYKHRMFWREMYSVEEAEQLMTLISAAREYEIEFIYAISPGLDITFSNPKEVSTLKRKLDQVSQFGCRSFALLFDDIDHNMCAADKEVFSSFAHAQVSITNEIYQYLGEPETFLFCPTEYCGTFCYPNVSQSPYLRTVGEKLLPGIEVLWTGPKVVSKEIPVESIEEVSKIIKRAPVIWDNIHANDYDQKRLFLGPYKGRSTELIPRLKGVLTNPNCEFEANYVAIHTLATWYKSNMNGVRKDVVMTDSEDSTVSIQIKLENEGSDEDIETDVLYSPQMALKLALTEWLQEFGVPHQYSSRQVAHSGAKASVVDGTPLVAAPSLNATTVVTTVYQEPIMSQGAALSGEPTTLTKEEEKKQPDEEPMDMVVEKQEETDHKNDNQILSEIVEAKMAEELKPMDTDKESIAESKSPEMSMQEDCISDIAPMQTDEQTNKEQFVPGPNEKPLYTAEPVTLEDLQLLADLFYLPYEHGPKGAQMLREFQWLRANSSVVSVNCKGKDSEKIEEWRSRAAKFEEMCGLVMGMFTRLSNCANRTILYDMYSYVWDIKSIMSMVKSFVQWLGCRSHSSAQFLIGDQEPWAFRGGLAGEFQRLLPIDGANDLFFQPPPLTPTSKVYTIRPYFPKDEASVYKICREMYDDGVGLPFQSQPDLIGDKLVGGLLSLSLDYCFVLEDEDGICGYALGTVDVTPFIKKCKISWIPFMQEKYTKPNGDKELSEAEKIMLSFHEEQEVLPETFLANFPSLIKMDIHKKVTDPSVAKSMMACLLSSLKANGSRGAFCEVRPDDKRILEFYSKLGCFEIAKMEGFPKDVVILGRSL

SMILES	IC50 [M]
CC(c1ccc2cccnc2c1)N1CCN(c2ncccn2)CC1 (racemic) [Example 91, 7-(1-(4-(pyrimidin-2-yl)piperazin-1-yl)ethyl)quinoline]	5e-08 to 2e-07
CC(=O)Nc1cnc(N2CCN(C(C)c3ccc4c(c3)OCO4)CC2)nc1 (racemic) [Example 72, N-(2-(4-(1-(benzo[d][1,3]dioxol-5-yl)ethyl)piperazin-1-yl)pyrimidin-5-yl)acetamide]	< 5e-08

Same assay, conditions: OGA enzyme inhibition assay; activity range classes defined in μM; read-out: OGA IC50

SMILES	IC50 [M]
COc1cccc(N2CCN(C(C)c3ccc4c(c3)OCCO4)CC2)n1 (racemic) [Example 200]	5e-08 to 2e-07
C[C@@H](c1ccc2c(c1)OCO2)N1CCN(c2ccc(C(=O)N(C)C)cn2)CC1 [Example 187, (S)-6-(4-(1-(benzo[d][1,3]dioxol-5-yl)ethyl)piperazin-1-yl)-N,N-dimethylnicotinamide]	< 5e-08
CC(c1ccc2c(c1)OCCO2)N1CCN(c2nc(C(N)=O)cs2)CC1 (racemic) [Example 49, 2-(4-(1-(2,3-Dihydrobenzo[b][1,4]dioxin-6-yl)ethyl)piperazin-1-yl)thiazole-4-carboxamide]	2e-07 to 1e-06
CC(=O)Nc1cnc(N2CCN(C(C)c3ccc4c(c3)OCC4)CC2)nc1 (racemic) [Example 129, N-(2-(4-(1-(2,3-dihydrobenzofuran-6-yl)ethyl)piperazin-1-yl)pyrimidin-5-yl)acetamide]	< 5e-08
C[C@@H](c1ccc2c(c1)OCO2)N1CCN(c2ncc(C3(O)CCCCC3)cn2)CC1 [Example 180, (S)-1-(2-(4-(1-(benzo[d][1,3]dioxol-5-yl)ethyl)piperazin-1-yl)pyrimidin-5-yl)cyclohexan-1-ol]	< 5e-08
CC(c1ccc2c(c1)OCO2)N1CCN(c2nc(C(C)(C)C)cs2)CC1 (racemic) [Example 16, 2-(4-(1-(benzo[d][1,3]dioxol-5-yl)ethyl)piperazin-1-yl)-4-(tert-butyl)thiazole]	1e-06 to 1e-05
CC(=O)Nc1ncc(N2CCN(C(C)c3ccc4c(c3)OCO4)CC2)s1 (racemic) [Example 86, N-(5-(4-(1-(benzo[d][1,3]dioxol-5-yl)ethyl)piperazin-1-yl)thiazol-2-yl)acetamide]	< 5e-08
C[C@@H](c1ccc2c(c1)OCO2)N1CCN(c2ccc(Br)cn2)CC1 [Example 191, (S)-1-(1-(benzo[d][1,3]dioxol-5-yl)ethyl)-4-(5-bromopyridin-2-yl)piperazine]	5e-08 to 2e-07
CC(c1ccc2c(c1)OCCO2)N1CCN(c2ncc(C(=O)N3CCC(O)CC3)s2)CC1 (racemic) [Example 73, (2-(4-(1-(2,3-Dihydrobenzo[b][1,4]dioxin-6-yl)ethyl)piperazin-1-yl)thiazol-5-yl)(4-hydroxypiperidin-1-yl)methanone]	5e-08 to 2e-07
CC(c1ccc2c(c1)OCO2)N1CCN(c2ccnc(N)n2)CC1 (racemic) [Example 46, 4-(4-(1-(Benzo[d][1,3]dioxol-5-yl)ethyl)piperazin-1-yl)pyrimidin-2-amine]	5e-08 to 2e-07
CCOC(=O)c1cnc(N2CCN(C(C)c3ccc4nccnc4c3)CC2)s1 (racemic) [Example 90, Ethyl-2-(4-(1-(quinoxalin-6-yl)ethyl)piperazin-1-yl)thiazole-5-carboxylate]	2e-07 to 1e-06
CC(=O)Nc1cnc(N2CCN(C(C)c3ccc4nsnc4c3)CC2)nc1 (racemic) [Example 122, N-(2-(4-(1-(benzo[c][1,2,5]thiadiazol-5-yl)ethyl)piperazin-1-yl)pyrimidin-5-yl)acetamide]	< 5e-08
CC(=O)Nc1cnc(N2CCN(C(C)c3ccc4ncsc4c3)CC2)nc1 (racemic) [Example 174, N-(2-(4-(1-(benzo[d]thiazol-6-yl)ethyl)piperazin-1-yl)pyrimidin-5-yl)acetamide]	1e-06 to 1e-05
CCC(=O)Nc1nnc(N2CCN(C(C)c3ccc4c(c3)OCO4)CC2)s1 (racemic) [Example 105, N-(5-(4-(1-(benzo[d][1,3]dioxol-5-yl)ethyl)piperazin-1-yl)-1,3,4-thiadiazol-2-yl)propionamide]	< 5e-08
CC(c1ccc2c(c1)OCO2)N1CCN(c2ncc(C(N)=O)s2)CC1 (racemic) [Example 48, 2-(4-(1-(Benzo[d](1,3)dioxol-5-yl)ethyl)piperazin-1-yl)thiazole-5-carboxamide]	< 5e-08
CC(c1ccc2c(c1)OCO2)N1CCN(c2nc(C(N)=O)cs2)CC1 (racemic) [Example 35, 2-(4-(1-(Benzo[d][1,3]dioxol-5-yl)ethyl)piperazin-1-yl)thiazole-4-carboxamide]	5e-08 to 2e-07
CC(=O)Nc1cnc(N2CCN(C(C)c3ccc4c(c3)OCCO4)CC2)nc1 (racemic) [Example 96, N-(2-(4-(1-(2,3-Dihydrobenzo[b][1,4]dioxin-6-yl)ethyl)piperazin-1-yl)pyrimidin-5-yl)acetamide]	< 5e-08
CC(=O)Nc1nnc(N2CCN(C(C)c3ccc4c(Cl)ccnc4c3)CC2)s1 (racemic) [Example 100, N-(5-(4-(1-(4-chloroquinolin-7-yl)ethyl)piperazin-1-yl)-1,3,4-thiadiazol-2-yl)acetamide]	2e-07 to 1e-06

SMILES	IC50 [M]
CC(=O)Nc1cnc(N2CCN(C(C)c3ccc4c(c3)OCCCO4)CC2)nc1 (racemic) [Example 126, N-(2-(4-(1-(3,4-dihydro-2H-benzo[b][1,4]dioxepin-7-yl)ethyl)piperazin-1-yl)pyrimidin-5-yl)acetamide]	2e-07 to 1e-06
CC(=O)Nc1nnc(N2CCN(C(C)c3ccc(F)c(F)c3)CC2)s1 (racemic) [Example 76, N-(5-(4-(1-(3,4-difluorophenyl)ethyl)piperazin-1-yl)-1,3,4-thiadiazol-2-yl)acetamide]	1e-06 to 1e-05
CC(c1ccc2c(c1)OCO2)N1CCN(c2nnc(NCc3ccc(Cl)cc3)s2)CC1 (racemic) [Example 111, 5-(4-(1-(benzo[d][1,3]dioxol-5-yl)ethyl)piperazin-1-yl)-N-(4-chlorobenzyl)-1,3,4-thiadiazol-2-amine]	5e-08 to 2e-07
CC(O)c1cnc(N2CCN([C@@H](C)c3ccc4c(c3)OCO4)CC2)nc1 (single isomer, unassigned) [Example 197]	< 5e-08
CC(c1ccc2c(c1)OCO2)N1CCN(c2nc(-c3ccccc3)cs2)CC1 (racemic) [Example 5, 2-(4-(1-(Benzo[d][1,3]dioxol-5-yl)ethyl)piperazin-1-yl)-4-phenylthiazole]	2e-07 to 1e-06
Cc1ccnc(N2CCN(C(C)c3ccc4c(c3)OCO4)CC2)n1 (racemic) [Example 9, 2-(4-(1-(Benzo[d][1,3]dioxol-5-yl)ethyl)piperazin-1-yl)-4-methylpyrimidine]	2e-07 to 1e-06
C[C@@H](c1ccc2c(c1)OCO2)N1CCN(c2ncc(Br)cn2)CC1 [Example 175, (S)-2-(4-(1-(benzo[d][1,3]dioxol-5-yl)ethyl)piperazin-1-yl)-5-bromopyrimidine]	< 5e-08
CC(=O)Nc1cnc(N2CCN(C(C)c3ccc4cc(Cl)cnc4c3)CC2)nc1 (racemic) [Example 125, N-(2-(4-(1-(3-chloroquinolin-7-yl)ethyl)piperazin-1-yl)pyrimidin-5-yl)acetamide]	1e-06 to 1e-05
CC(c1ccc2c(c1)OCO2)N1CCN(c2nc3c(s2)C(=O)NCC3)CC1 (racemic) [Example 148, 2-(4-(1-(benzo[d][1,3]dioxol-5-yl)ethyl)piperazin-1-yl)-6,7-dihydrothiazolo[5,4-c]pyridin-4(5H)-one]	5e-08 to 2e-07
CCc1csc(N2CCN(C(C)c3ccc4c(c3)OCO4)CC2)n1 (racemic) [Example 19, 2-(4-(1-(Benzo[d][1,3]dioxol-5-yl)ethyl)piperazin-1-yl)-4-ethylthiazole]	2e-07 to 1e-06
CC(c1ccc2c(c1)OCO2)N1CCN(c2nnc(N)s2)CC1 (racemic) [Example 41, 5-(4-(1-(benzo[d][1,3]dioxol-5-yl)ethyl)piperazin-1-yl)-1,3,4-thiadiazol-2-amine]	5e-08 to 2e-07
CC(c1ccc2c(c1)OCO2)N1CCN(c2ncc(C(=O)N(C)C)cn2)CC1 (racemic) [Example 99, 2-(4-(1-(benzo[d][1,3]dioxol-5-yl)ethyl)piperazin-1-yl)-N,N-dimethylpyrimidine-5-carboxamide]	< 5e-08
CC(c1ccc2nccnc2c1)N1CCN(c2nccc(C(F)(F)F)n2)CC1 (racemic) [Example 94, 6-(1-(4-(4-(trifluoromethyl)pyrimidin-2-yl)piperazin-1-yl)ethyl)quinoxaline]	2e-07 to 1e-06
CCOC(=O)c1cnc(N2CCN(C(C)c3ccc4c(c3)OCO4)CC2)nc1 (racemic) [Example 51, Ethyl 2-(4-(1-(benzo[d][1,3]dioxol-5-yl)ethyl)piperazin-1-yl)pyrimidine-5-carboxylate]	5e-08 to 2e-07
CC(c1ccc2c(c1)OCO2)N1CCN(c2cnc(I)nc2)CC1 (racemic) [Example 8, -5-(4-(1-(benzo[d][1,3]dioxol-5-yl)ethyl)piperazin-1-yl)-2-iodopyrimidine]	5e-08 to 2e-07
CNC(=O)c1csc(N2CCN(C(C)c3ccc4c(c3)OCO4)CC2)n1 (racemic) [Example 30, 2-(4-(1-(Benzo[d][1,3]dioxol-5-yl)ethyl)piperazin-1-yl)-N-methylthiazole-4-carboxamide]	5e-08 to 2e-07
CC(c1ccc2nccnc2c1)N1CCN(c2nc3c(s2)C(=O)NCC3)CC1 (racemic) [Example 178, 2-(4-(1-(quinoxalin-6-yl)ethyl)piperazin-1-yl)-6,7-dihydrothiazolo[5,4-c]pyridin-4(5H)-one]	2e-07 to 1e-06
C[C@@H](c1ccc2c(c1)OCO2)N1CCN(c2ccc(C(F)(F)F)cn2)CC1 [Example 166, (S)-1-(1-(benzo[d][1,3]dioxol-5-yl)ethyl)-4-(5-(trifluoromethyl)pyridin-2-yl)piperazine]	5e-08 to 2e-07

Same assay, conditions: measured according to Example B01

SMILES	OGA inhibitor activity (in words)
CC(=O)Nc1cnc(N2CCN(C(C)c3ccc4c(c3)OCC4)CC2)nc1 (racemic) [Example 129, N-(2-(4-(1-(2,3-dihydrobenzofuran-6-yl)ethyl)piperazin-1-yl)pyrimidin-5-yl)acetamide]	very potent OGA inhibitors
C[C@@H](c1ccc2c(c1)OCO2)N1CCN(c2ncc(C3(O)CCCCC3)cn2)CC1 [Example 180, (S)-1-(2-(4-(1-(benzo[d][1,3]dioxol-5-yl)ethyl)piperazin-1-yl)pyrimidin-5-yl)cyclohexan-1-ol]	very potent OGA inhibitors
CC(c1ccc2c(c1)OCO2)N1CCN(c2ncc(C(N)=O)s2)CC1 (racemic) [Example 48, 2-(4-(1-(Benzo[d](1,3)dioxol-5-yl)ethyl)piperazin-1-yl)thiazole-5-carboxamide]	very potent OGA inhibitors
Cc1cc2ccc(C(C)N3CCN(c4ncccc4C(F)(F)F)CC3)cc2[nH]c1=O (centres unmarked) [compound of example 56 of WO 99/21850, reference compound]	not useful as OGA inhibitors
CC(c1ccc2c(c1)OCCO2)N1CCN(c2ncc(C(=O)N3CCN(C)CC3)s2)CC1 (single isomer, unassigned) [Example 75]	very potent OGA inhibitors
CC(=O)Nc1cnc(N2CCN(C(C)c3ccc4c(c3)OCO4)CC2)nc1 (racemic) [Example 72, N-(2-(4-(1-(benzo[d][1,3]dioxol-5-yl)ethyl)piperazin-1-yl)pyrimidin-5-yl)acetamide]	very potent OGA inhibitors

Reference: patent US10336775B2 (Asceneuron SA, priority 2014, dated 2019)
